Measured values reported in US8669256B2, “Substituted thieno[2,3-b]pyrazine compounds as modulators of B-Raf kinase activity” (Merck Sharp & Dohme B.V., priority 2010, dated 2014).
Read-outs that look alike come from different tables or passages of the source.

What was measured:
[1] = system: phosphorylation of ERK1/2 in A375 cells containing mutant B-Raf (V600E); experiment: Phospho-ERK FACE assay in A375 (B-Raf mutated) melanoma cell line; type: cell-based; conditions: Homo sapiens, read-out: IC50, A375 melanoma phospho-ERK assay
Protocol: The B-Raf activity can also be determined in a B-Raf mutated melanoma cell line, such as the A375 cell line. Inhibition of phosphorylation of ERK1/2 can be measured using a Fast Activated Cell-based ELISA (FACE) from Active Motif (Carlsbad, U.S.A., CA). E.g. A375 cells, which are cells containing a mutant form of B-Raf (V600E) and thus contain high levels of phosphorylated ERK, can be incubated with Raf inhibitors. Then cells can be incubated with anti-phospho-ERK antibody and subsequently with horse radish peroxidase (HRP)-labeled secondary antibody. Finally, chemiluminescence reagents can be added, which react with HRP, to give a luminescence signal.
Determination of B-Raf Activity Using a A375 (B-Raf mutated) Melanoma Cell Line (Phospho-ERK FACE Assay)
Inhibition of phosphorylation of ERK1/2 was measured using a Fast Activated Cell-based ELISA (FACE) from Active Motif (Carlsbad, U.S.A., CA). Briefly, A375 cells, which are cells containing a mutant form of B-Raf (V600E) and thus contain high levels of phosphorylated ERK, were incubated for 2 hours with Raf inhibitors. Then, cells were fixed with paraformaldehyde, washed and following quenching and blocking, incubated with anti-phospho-ERK antibody, and as a control, on a separate plate, with ERK antibody. After washing and removal of the primary antibodies, the fixed cells were incubated with horse radish peroxidase (HRP)-labeled secondary antibody. Finally, chemiluminescence reagents were added, which react with HRP, to give a luminescence signal.
Detailed protocol: A375 cells were cultured in DMEM/F12 (Dulbecco's Modified Eagle Medium Nutrient Mixture F-12) (Invitrogen), supplemented with 10% fetal bovine serum (FBS) (Biowhittaker), 100 U/ml penicillin G and 100 μg/ml streptomycin (Gibco). For the phospho ERK assay, cells were seeded at a density of 15,000 cells/well in 100 μl culture medium in 96-well plates and incubated in a humidified atmosphere at 5% CO2 and 37° C. After 24 hours, cells were washed with DMEM/F12 supplemented with 0.1% FBS (assay medium 120 μl of assay medium was added and the plates were incubated overnight in a humidified atmosphere at 5% CO2 and 37° C. The next day, the assay medium was removed and compounds diluted in assay medium were added to the cells. Final DMSO concentration in the assay was 1%. After 2 hours incubation, cells were fixed by replacing the assay medium with 100 μl of 4% formaldehyde (Bio-Connect, Huissen, The Netherlands) in PBS. After 20 minutes of incubation at room temperature, cells were washed three times with 200 μl wash buffer (0.1% (vol/vol) Triton X-100 in PBS from the FACE kit) followed by an incubation of 20 minutes with 100 μl quenching buffer, containing 1% (vol/vol) hydrogen peroxide (Thermo Fisher Scientific) and 0.1% (vol/vol) sodium azide (Sigma-Aldrich) in phosphate-buffered saline. Cells were washed two times with wash buffer, incubated for 1 hour with 100 μl antibody blocking buffer from the kit and washed two times again. 40 μl of diluted antibody against phosphorylated ERK1/2 (1:500 from the FACE kit) was added and incubated overnight at 4° C. The phospho-ERK antibody has been raised against a synthetic phospho-peptide corresponding to residues Thr202 and Tyr204 of human ERK1 and Thr185 and Tyr187 of human ERK2. For the detection of total ERK, antibody against ERK1 and ERK2 (1:500 from the FACE kit) was added. The excessive primary antibody was washed out, and 100 μl diluted HRP-conjugated anti-rabbit IgG (1:2000 from the FACE kit) was added and incubated for 1 hour at room temperature. Secondary antibody was removed and cells were washed 3 times with wash buffer and twice with PBS. 50 μl per well of FACE chemiluminescent working solution was added. Chemiluminescence was measured on an Envision Multilabel reader.

[2] = target: T1, GST-tagged human recombinant active B-Raf (Δ1-415) (Homo sapiens, UniProt P15056); experiment: B-Raf kinase activity, IMAP coupled assay (B-Raf/MEK1/ERK2, fluorescence polarization); type: biochemical; conditions: bounds also given as pIC50 (>6, >7, >8); 60 min pre-incubation with compound, ATP 50 μM; read-out: IC50, B-Raf IMAP assay
T1 construct: GST; purchased Upstate/Millipore
T1 sequence (P15056 416-766, stated change not applied): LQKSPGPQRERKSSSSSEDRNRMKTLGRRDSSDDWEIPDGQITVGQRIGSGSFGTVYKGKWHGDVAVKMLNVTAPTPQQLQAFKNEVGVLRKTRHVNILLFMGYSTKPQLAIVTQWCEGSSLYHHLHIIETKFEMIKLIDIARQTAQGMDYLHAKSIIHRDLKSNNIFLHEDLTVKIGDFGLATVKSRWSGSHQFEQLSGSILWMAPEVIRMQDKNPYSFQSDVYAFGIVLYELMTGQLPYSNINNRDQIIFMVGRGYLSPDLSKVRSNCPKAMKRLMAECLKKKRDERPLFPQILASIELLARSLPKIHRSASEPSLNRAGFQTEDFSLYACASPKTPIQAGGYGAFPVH
Excerpt: (§1) In another assay the B-Raf kinase activity can be determined by using an IMAP assay (Immobilized Metal Assay for Phosphochemicals-based coupled assay). IMAP is a homogeneous fluorescence polarization (FP) assay based on affinity capture of phosphorylated peptide substrates. IMAP uses fluorescein-labeled peptide substrates that, upon phosphorylation by a protein kinase, bind to so called IMAP nanoparticles, which are derivatized with trivalent metal complexes. Such binding causes a change in the rate of the molecular motion of the peptide, and results in an increase in the FP value observed for the fluorescein label attached to the substrate peptide. In such an assay, B-Raf phosphorylates unactive MEK1. The phosphorylated MEK1 is capable of phosphorylating ERK2, which subsequently phosphorylates the fluorescein-labeled peptide substrate.
Determination of B-Raf Kinase Activity using an IMAP Assay
as §1, with “Inhibition of” for “In another assay the”, “was measured” for “can be determined by”, “Immobilized” for “IMAP assay (Immobilized”, “assay (IMAP).” for “assay).”, “this” for “such an”
Enzymes, substrate and ATP were diluted at all steps in Kinase Reaction buffer (10 mM Tris-HCl, 10 mM MgCl2, 0.01% Tween-20, 0.05% NaN3 pH 7.2, 1 mM DTT). The final volume at the kinase reaction step of the assay in the 384-well plate was 20 μl. The concentrations within brackets are final concentrations in the assay. B-Raf (GST-tagged human recombinant active B-Raf (Δ1-415), Upstate/Millipore; 0.2 U/ml) was pre-incubated with compounds or DMSO (1% final concentration) for 60 minutes at room temperature in the dark. Thereafter, MEK 1 (GST-tagged human recombinant unactive MEK1 (full-length); 64 ng/ml), ERK2 (GST-tagged human recombinant unactive ERK2 (full-length); 600 ng/ml), peptide substrate (Erktide, Molecular Devices; 50 nM) and ATP (50 μM) were added to the wells and the mix was incubated for another 60 minutes at 30° C. in the dark. Then, IMAP progressive binding buffer (75% 1× buffer A, 25% 1× buffer B, 1:900 Progressive Binding Reagent; Molecular Devices) was added followed by an incubation step of 60 minutes at room temperature in the dark. Finally, the FP signal was read on an Envision Multilabel reader (Perkin Elmer).

[3] = A-375, A375 cells, 2 hours incubation, class between 10 μM and 1 μM (5<pIC50<6)
[4] = A-375, A375 cells, 2 hours incubation, between 1 μM and 100 nM (6<pIC50<7)
[5] = A-375, A375 cells, 2 hours incubation, class given as below 100 nM (pIC50>7)

Compound: Cc1ccc(NC(=O)c2cccc(OC(F)(F)F)c2)cc1NC(=O)c1cc2nccnc2s1 [Example 35, N-(2-methyl-5-(3-(trifluoromethoxy)benzamido)phenyl)thieno[2,3-b]pyrazine-6-carboxamide]
- IC50 [1, 3]: 1 to 10 µM
- IC50 [2]: < 0.1 µM

Compound: Cc1ccc(NC(=O)c2cccc(C(C)(C)C#N)c2)cc1NC(=O)c1cc2ncc(NCCN3CCOCC3)nc2s1 [Example 63, N-(5-(3-(2-cyanopropan-2-yl)benzamido)-2-methylphenyl)-3-(2-morpholinoethylamino)thieno[2,3-b]pyrazine-6-carboxamide]
- IC50 [1, 4]: 0.1 to 1 µM
- IC50 [2]: < 0.01 µM

Compound: Cc1ccc(NC(=O)c2cc(C(C)(C)C)n[nH]2)cc1NC(=O)c1cc2nccnc2s1 [Example 30, N-(5-(3-tert-butyl-1H-pyrazole-5-carboxamido)-2-methylphenyl)thieno[2,3-b]pyrazine-6-carboxamide]
- IC50 [1, 4]: 0.1 to 1 µM
- IC50 [2]: < 0.1 µM

Compound: Cc1ccc(NC(=O)c2cccc(C(C)(C)C#N)c2)cc1NC(=O)c1sc2nccnc2c1Br [Example 41, 7-bromo-N-(5-(3-(2-cyanopropan-2-yl)benzamido)-2-methylphenyl)thieno[2,3-b]pyrazine-6-carboxamide]
- IC50 ([1]; A-375, 2 h): 0.1 to 1 µM
- IC50 [2]: < 0.01 µM

Compound: Cc1ccc(NC(=O)c2cccc(C(C)(C)C#N)c2)cc1NC(=O)c1sc2nccnc2c1N [Example 1, 7-amino-N-(5-(3-(2-cyanopropan-2-yl)benzamido)-2-methylphenyl)thieno[2,3-b]pyrazine-6-carboxamide]
- IC50 [1, 5]: < 0.1 µM
- IC50 [2]: < 0.01 µM

Compound: Cc1ccc(NC(=O)c2cccc(C(C)(C)C#N)c2)cc1NC(=O)c1sc2ncc(N3CCOCC3)nc2c1N [Example 9, 7-amino-N-(5-(3-(2-cyanopropan-2-yl)benzamido)-2-methylphenyl)-2-morpholinothieno[2,3-b]pyrazine-6-carboxamide]
- IC50 [1, 5]: < 0.1 µM
- IC50 [2]: < 0.01 µM

Compound: Cc1ccc(NC(=O)c2cccc(C(C)(C)C#N)c2)cc1C(=O)Nc1cc2nccnc2s1 [Example 73, 5-(3-(2-cyanopropan-2-yl)benzamido)-2-methyl-N-(thieno[2,3-b]pyrazin-6-yl)benzamide]
- IC50 [1, 4]: 0.1 to 1 µM
- IC50 [2]: < 0.1 µM

Compound: CCNc1c(C(=O)Nc2cc(NC(=O)c3cccc(C(C)(C)C#N)c3)ccc2C)sc2nccnc12 [Example 46, N-(5-(3-(2-cyanopropan-2-yl)benzamido)-2-methylphenyl)-7-(ethylamino)thieno[2,3-b]pyrazine-6-carboxamide]
- IC50 [1, 5]: < 0.1 µM
- IC50 [2]: < 0.1 µM

Compound: Cc1ccc(NC(=O)c2cccc(C(C)(C)C#N)c2)cc1NC(=O)c1sc2ncc(N(C)C)nc2c1N [Example 4, 7-amino-N-(5-(3-(2-cyanopropan-2-yl)benzamido)-2-methylphenyl)-2-(dimethylamino)thieno[2,3-b]pyrazine-6-carboxamide]
- IC50 [1, 5]: < 0.1 µM
- IC50 [2]: < 0.01 µM

Compound: Cc1ccc(NC(=O)c2cccc(C(C)(C)C#N)c2)cc1NC(=O)c1cc2ncc(NCCO)nc2s1 [Example 66, N-(5-(3-(2-cyanopropan-2-yl)benzamido)-2-methylphenyl)-3-(2-hydroxyethylamino)thieno[2,3-b]pyrazine-6-carboxamide]
- IC50 [1, 3]: 1 to 10 µM
- IC50 [2]: < 0.01 µM

Compound: Cc1ccc(NC(=O)c2ccc(C)c(C(F)(F)F)c2)cc1NC(=O)c1cc2nccnc2s1 [Example 31, N-(2-methyl-5-(4-methyl-3-(trifluoromethyl)benzamido)phenyl)thieno[2,3-b]pyrazine-6-carboxamide]
- IC50 [1, 4]: 0.1 to 1 µM
- IC50 [2]: < 0.1 µM

Compound: Cc1ccc(NC(=O)c2cccc(C(C)(C)C#N)c2)cc1NC(=O)c1sc2ncc(NC3CCOCC3)nc2c1N [Example 11, 7-amino-N-(5-(3-(2-cyanopropan-2-yl)benzamido)-2-methylphenyl)-2-(tetrahydro-2H-pyran-4-ylamino)thieno[2,3-b]pyrazine-6-carboxamide]
- IC50 [1, 5]: < 0.1 µM
- IC50 [2]: < 0.1 µM

Compound: Cc1ccc(NC(=O)c2cccc(C(C)(C)C#N)c2)cc1NC(=O)c1cc2nccnc2s1 [Example 27, N-(5-(3-(2-cyanopropan-2-yl)benzamido)-2-methylphenyl)thieno[2,3-b]pyrazine-6-carboxamide]
- IC50 [1, 4]: 0.1 to 1 µM
- IC50 [2]: < 0.01 µM

Compound: Cc1ccc(NC(=O)c2cccc(C(C)(C)C#N)c2)cc1NC(=O)c1sc2nccnc2c1C#N [Example 43, 7-cyano-N-(5-(3-(2-cyanopropan-2-yl)benzamido)-2-methylphenyl)thieno[2,3-b]pyrazine-6-carboxamide]
- IC50 [1, 4]: 0.1 to 1 µM
- IC50 [2]: < 0.01 µM

Compound: CC(=O)c1cnc2sc(C(=O)Nc3cc(NC(=O)c4cccc(C(C)(C)C#N)c4)ccc3C)cc2n1 [Example 19, 2-acetyl-N-(5-(3-(2-cyanopropan-2-yl)benzamido)-2-methylphenyl)thieno[2,3-b]pyrazine-6-carboxamide]
- IC50 [1, 3]: 1 to 10 µM
- IC50 [2]: < 0.1 µM

Compound: CCNc1cnc2sc(C(=O)Nc3cc(NC(=O)c4cccc(C(C)(C)C#N)c4)ccc3C)cc2n1 [Example 13, N-(5-(3-(2-cyanopropan-2-yl)benzamido)-2-methylphenyl)-2-(ethylamino)thieno[2,3-b]pyrazine-6-carboxamide]
- IC50 [1, 5]: < 0.1 µM
- IC50 [2]: < 0.1 µM
